The record followed here is US12662518B2, “Engineered peptide and peptide mimetic compositions and methods” (The Wistar Institute of Anatomy and Biology, priority 2019, dated 2026).

For assay [1], the system named is isolated tumor (PC3) mitochondria. Kind of assay: high-throughput assay for depolarization of isolated tumor (PC3) mitochondria, TMRE staining. The class given is biochemical, human. The conditions noted are these: MFF peptides 20 μM. On the procedure:
Analysis of mitochondrial membrane potential. […] In some experiments, PC3 cells were treated with cell-permeable scrambled peptide or cell-permeable MFF #8-11 peptide, washed three times in PBS, pH 7.4, and analyzed on a FACSCalibur flow cytometer, with the TMRE signal as FL1. Intact cells were gated in the FSC/SSC plot to exclude small debris. Cells treated with 20 μM FCCP 10 min prior to TMRE staining were used as a negative control. The resulting FL1 data were plotted on a histogram. For quantification of membrane potential of purified mitochondria, mitochondria isolated from PC3 cells (50 μg) were suspended in 400 μl of SB buffer (0.2 M sucrose, 10 mM Tris-MOPS, pH 7.4, 5 mM succinate, 1 mM sodium phosphate, 10 μM EGTA-Tris, 2 μM rotenone). […] After two washes with SB buffer, mitochondria were recovered by centrifugation at 6000×g for 10 min, suspended in 100 μl of SB buffer and mitochondrial membrane potential was quantified on a florescence microplate reader (Ex/Em=535/595 nm, Beckman Coulter). Samples treated with 2 mM CaCl2 were used as control for the lowest membrane potential (fully depolarized state).

Assay [2] relates to prostate cancer cell types (LNCaP, C4-2B, PC3, DU145). In words: cell death of prostate cancer cells, CellTox reactivity. The class given is cell-based, human. The conditions noted are these: PC3 / prostate cancer cells, 0-50 μM.
Description: Cell death and apoptosis. […] The various cell-permeable MFF peptides were examined for induction of cytotoxicity using a CellTOX Green cytotoxicity assay kit (Promega). Briefly, 10^4 normal or tumor cells in 100 μl complete medium were plated on white opaque 96-well plate. […] Lysis Solution in the assay kit was used as cytotoxicity control (100% cell death) and treatment with PBS was used as a control for 100% cell viability.
For another assay, the system named is DU145 or PC3 cells. Kind of assay: release of HMGB1 and cyclophilin A from tumor cells, Western blotting. The format is cell-based, human. The conditions noted are these: marker of necrosis. A general note: In western blotting, separated proteins are transferred to a membrane and probed.
The test system of another assay is PC3 cells. In words: cytochrome c release from tumor cells, Western blotting. The format is cell-based, human. The conditions noted are these: supernatants vs mitochondrial extracts.
Assay [3] has as its target T1, MFF-PTP complex (MFF and VDAC or HK-I) (Homo sapiens, UniProt P21796).
T1 construct: VDAC and HK-I are endogenous
In words: competition of MFF-PTP complex in isolated cell extracts, Flag-MFF1 immunoprecipitation and Western blotting. The format is biochemical. The conditions noted are these: added to isolated cell extracts. On the procedure:
Immunoprecipitation (IP). Cells were harvested and lysed with IP buffer (50 mM Tris-HCl, pH 7.5, 150 mM NaCl, 1 mM EDTA) containing 1% CHAPS, EDTA-free Protease Inhibitor Cocktail (Sigma-Aldrich) and Phosphatase Inhibitor Cocktail PhosSTOP (Roche). After sonication, lysates were centrifuged at 15,000×g for 30 min, and cell extracts were incubated with anti-Flag-conjugated beads (Sigma-Aldrich). The precipitates were washed five times, separated by SDS-polyacrylamide gel electrophoresis and processed for Western blotting together with samples representing unbound material and supernatant.
Immunoprecipitation. Cells were harvested and lysed with PLD assay buffer (50 mM HEPES-NaOH, pH 7.3, 3 mM EGTA, 3 mM CaCl2, 3 mM MgCl2, 80 mM KCl) containing 1% CHAPS, EDTA-free Protease Inhibitor Cocktail (Sigma-Aldrich) and Phosphatase Inhibitor Cocktail PhosSTOP (Roche). After sonication, lysates were centrifuged at 15,000×g for 30 min, and cell extracts were incubated with anti-Flag-conjugated beads (Sigma-Aldrich). The precipitates were washed five times, separated by sodium dodecyl sulfate-polyacrylamide gel electrophoresis (SDS-PAGE) and processed for Western blotting.

The subject of assay [4] is mitochondria of normal BPH-1 cells. Kind of assay: depolarization of isolated mitochondria of normal BPH-1 cells, TMRE staining. The format is biochemical, human. The conditions noted are these: peptide #8 10-30 μM.
Assay [5] has as its system NSCLC A549 and H460 or breast adenocarcinoma MDA-231 and MCF-7 cells. In words: NSCLC and breast adenocarcinoma cell lines, TMRE flow cytometry and CellTox cell death. The class given is cell-based, human. The conditions noted are these: A549, H460, MDA-231, MCF-7 cells, 10-25 μM, TMRE.
The next assay concerns the target T2, human recombinant VDAC (Homo sapiens, UniProt P21796).
T2 construct: The cleaved, full length hVDAC1 was collected from the HS-HQ flow through; hexahistidine-SUMO (N, cleaved yes); made in house; host or cells: E. coli ScarabXpress T7 lac
Kind of assay: isothermal titration calorimetry (ITC). The class given is binding. The conditions noted are these: 20° C. On the procedure:
Expression and purification of human VDAC1. A full length human VDAC1 cDNA (hVDAC1) was cloned into pET28b vector containing an N-terminal hexahistidine-SUMO fusion tag, with a flexible linker cleavable by tobacco etch virus (TEV) protease. The hVDAC1 was expressed in E. coli ScarabXpress T7 lac competent cells (Scarab genomics) for 16 h at 16° C. using 1 mM IPTG (Denville Scientific Inc.). The cells were harvested by centrifugation and lysed on ice via sonication in buffer containing 25 mM Tris-HCl (pH 7.5), 1 M Urea, 1 M KCl, 5% glycerol, 1 mM Benzamidine and 1 mM PMSF (Ni Buffer A). The lysate was centrifuged at 18,000 rpm for 20 min at 4° C. The cell pellet was first washed extensively in Ni Buffer A with 1% Triton X-100 and then solubilized in buffer containing 20 mM Tris-HCl (pH 7.9), 500 mM NaCl, 4 M guanidine-HCl and 10% glycerol for 45 min with gentle stirring. The supernatant was collected following centrifugation at 20,000 rpm for 10 min at 4° C. The protein was then purified over nickel-nitrilotriacetic acid (Ni-NTA—Qiagen) column and buffer-exchanged to 25 mM Tris-HCl (pH 7.5), 500 mM KCl, 5% glycerol, 1 mM benzamidine and 1 mM PMSF (Ni buffer C) with 2% n-Octylglucoside (Research Products International). The protein was then eluted with 300 mM imidazole and treated overnight with TEV at 4° C. to cleave the His-SUMO tag. […]
(In ITC the heat of successive injections is recorded.)

Peptide text beside a SMILES is read from it.

T2 sequence (P21796 whole entry): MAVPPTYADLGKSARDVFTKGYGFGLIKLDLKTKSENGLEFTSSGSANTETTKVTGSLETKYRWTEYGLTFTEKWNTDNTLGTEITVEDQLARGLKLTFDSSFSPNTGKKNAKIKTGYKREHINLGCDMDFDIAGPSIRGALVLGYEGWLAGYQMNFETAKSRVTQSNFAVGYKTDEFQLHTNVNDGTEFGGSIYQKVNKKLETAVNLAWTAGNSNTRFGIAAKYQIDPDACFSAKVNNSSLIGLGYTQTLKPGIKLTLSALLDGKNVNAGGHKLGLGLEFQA
T1 sequence (P21796 2-283 limits assumed, one chain of several): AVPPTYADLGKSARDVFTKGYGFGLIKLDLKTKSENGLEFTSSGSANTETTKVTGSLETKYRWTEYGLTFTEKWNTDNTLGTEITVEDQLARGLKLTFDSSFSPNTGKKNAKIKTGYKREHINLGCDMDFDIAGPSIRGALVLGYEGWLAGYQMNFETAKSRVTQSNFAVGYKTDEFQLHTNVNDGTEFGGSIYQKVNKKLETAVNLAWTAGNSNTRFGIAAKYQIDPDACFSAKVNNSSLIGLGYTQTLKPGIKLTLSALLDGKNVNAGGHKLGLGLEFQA

In the case of “SARGILSLIQSSTRRAYQQILDVL (MFF Deletion; Peptide 8 #2) [peptide #8 variant #2]”, the “depolarization of isolated tumor (PC3) mitochondria” value (shortened to “depolarization of isolated tumor”) in assay [1] is given as “depolarized isolated tumor mitochondria”. As for “MFF peptide #8-11 containing the double mutation R225D/R236D (DD): cell-permeable MFF peptide #8-11 mutant containing the double mutation R225D/R236D (DD) (RQIKIWFQNRRMKSADGILSLIQSSTDRAYQQIL)”, the figures for the “tumor cell death / viability” value in assay [2] and in assay [2] (listed as DD) were “did not affect tumor cell viability” and “entirely lost the ability to induce tumor (PC3) cell death”, respectively. The “HMGB1 release from tumor cells” value in the assay on DU145 or PC3 cells was “had no effect on HMGB1 release”; in the assay with DU145 or PC3 cells (listed as MFF-DD mutant peptide #8-11), “did not induce HMGB1 release”.

With “NLSSARGILSLIQSSTRRAYQQILDVL (MFF Deletion; Peptide 8 #1) [peptide #8 variant #1]”, in assay [1], the “depolarization of isolated tumor” value is “depolarized isolated tumor mitochondria”. For the compound “AEMAEISRIQYEMEYTEGISQRMRVP (MFF-Derived; Peptide #1) [MFF #1]”, the “cytochrome c release from tumor cells” value in the assay with PC3 cells was “had no effect”. For the compound “DGANLSSARGILSLIQSSTRRAYQQILDVL (MFF-Derived; Peptide #8) [MFF peptide #8]”, in assay [3], the “disruption of the interaction between MFF and VDAC or HK-I” value is “disrupting the interaction between MFF and VDAC or HK-I”. Also, the “depolarization of isolated tumor” value in assay [1] is “depolarized tumor mitochondria”. Moreover, the “depolarization of mitochondria of normal BPH-1 cells” value in assay [4] is “did not depolarize”. In the case of “SSQLRYLARSQRITIQLIAGS (MFF Scramble; Peptide 8 #11) [scrambled sequence]”, in assay [5], the mitochondrial membrane potential result is listed as “not”. For the same compound, the “binding to human recombinant VDAC by ITC” value with human recombinant VDAC is reported as “ineffective”. Consider “DGANLSSARGILSLIQSSTRRAYQQIL (MFF Deletion; Peptide 8 #6) [peptide #8 variant #6]”, for which the “depolarization of isolated tumor” value in assay [1] is reported as “depolarized isolated tumor mitochondria”. In general, Kd refers to the equilibrium constant for the complex coming apart. Consider `CC[C@H](C)[C@H](NC(=O)CNC(=O)[C@H](CCCNC(=N)N)NC(=O)[C@H](C)NC(=O)[C@@H](N)CO)C(=O)N[C@@H](CC(C)C)C(=O)N[C@@H](CO)C(=O)N[C@@H](CC(C)C)C(=O)N[C@H](C(=O)N[C@@H](CCC(N)=O)C(=O)N[C@@H](CO)C(=O)N[C@@H](CO)C(=O)N[C@H](C(=O)N[C@@H](CCCNC(=N)N)C(=O)N[C@@H](CCCNC(=N)N)C(=O)N[C@@H](C)C(=O)N[C@@H](Cc1ccc(O)cc1)C(=O)N[C@@H](CCC(N)=O)C(=O)N[C@@H](CCC(N)=O)C(=O)N[C@H](C(=O)N[C@@H](CC(C)C)C(=O)O)[C@@H](C)CC)[C@@H](C)O)[C@@H](C)CC` [MFF peptide #8-11] (H-SARGILSLIQSSTRRAYQQIL-OH), for which the Kd on human recombinant VDAC was ~12 µM.
